Experimental data: US20240391871A1, “SUBSTITUTED HYDROXYMETHYL PYRROLIDINES AND MEDICAL USES THEREOF” (ATROGI AB, priority 2021, published 2024)

Legend:
Type in all cases: cell-based
[1] = tested on: Intracellular cAMP levels; test: Measurement of intracellular cAMP levels in differentiated L6 cells; conditions: compound 1×10^−5 M, 15 min
Protocol: (§1) L6-myoblasts were grown in Dulbecco's Modified Eagle's Medium (DMEM) containing 1 g/L glucose supplemented with 10% fetal bovine serum, 2 mM L-Glutamine, 50 U/mL penicillin, 50 μg/mL streptomycin and 10 mM HEPES. Cells were plated at 1×10^5 cells per mL in 24-well plates. After reaching 90% confluence the cells were grown in medium containing 2% FBS for 7 days where upon cells differentiated into myotubes.
Differentiated cells were serum-starved overnight and stimulated with an agonist, final concentration 1×10^−5 M, for 15 min in stimulation buffer (HBSS supplemented with 1% BSA, 5 mM HEPES and 1 mM IBMX, pH 7.4). The medium was aspirated and 100 μL of 95% EtOH was added to each well of the 24-well plate and cells were kept at −20° C. overnight. The EtOH was allowed to evaporate and 500 μL of lysis buffer (1% BSA, 5 mM HEPES and 0.3% Tween-20, pH 7.4) was added to each well. The plate was kept at −80° C. for 30 min and then at −20° C. until the day of detection when the samples were thawed. Intracellular cAMP levels were detected using an alpha screen cAMP kit (6760635D from Perkin Elmer). The activity for each compound is compared to that of isoproterenol.

L6-myotubes [2] = test: Glucose uptake in L6-myotubes in the presence of the β2-antagonist ICI-118,551; conditions: compound 1×10^−5 M, ICI-118,551 1×10^−5 M
Protocol: as §1
Differentiated L6-myotubes were serum-starved overnight in medium containing 0.5% fatty-acid free BSA and were incubated with the β2-adrenergic receptor antagonist ICI-118,551 at a final concentration of 1×10^−5 M for 30 min. The cells were stimulated with a compound of the invention, at a final concentration of 1×10^−5 M. After 1 h 40 min the cells were washed twice with warm, glucose free medium or PBS and additional portions of the compound of the invention and the antagonist were added. After 20 min the cells were exposed to 50 nM ^3H-2-deoxyglucose for 10 min before washed with ice cold glucose free medium or PBS three times and lysed with 0.2 M NaOH, 400 μL/well, for 1 h at 60° C. The cell lysate was mixed with 4 mL scintillation buffer (Emulsifier Safe, Perkin Elmer) and the radioactivity was detected in a β-counter (Tri-Carb 4810TR, Perkin Elmer). The activity for each compound is compared to that of isoproterenol.

L6-myotubes [3] = test: Glucose uptake (3H-2-deoxyglucose) in differentiated L6-myotubes; conditions: compound 1×10^−5 M
Protocol: as §1
Differentiated L6-myotubes were serum-starved overnight in medium containing 0.5% fatty-acid free BSA and stimulated with an agonist, with a final concentration of 1×10^−5 M. After 1 h 40 min the cells were washed with warm glucose free medium or PBS twice and another portion of agonist was added to the glucose free medium. After 20 min the cells were exposed to 50 nM ^3H-2-deoxyglucose for 10 min before washed with ice cold glucose free medium or PBS three times and lysed with 0.2 M NaOH, 400 μL/well, for 1 h at 60° C. The cell lysate was mixed with 4 mL scintillation buffer (Emulsifier Safe, Perkin Elmer) and the radioactivity was detected in a β-counter (Tri-Carb 4810TR, Perkin Elmer). The activity for each compound is compared to that of isoproterenol.

Structure (SMILES)	Biological example 2: intracellular cAMP levels, activity compared to that of isoproterenol [1]	Biological example 3: glucose uptake in the presence of the β2-antagonist ICI-118,551, activity compared to that of isoproterenol (L6-myotubes [2])	Biological example 1: glucose uptake, activity compared to that of isoproterenol (L6-myotubes [3])	Emax at 10 µM ([1]; Rattus norvegicus, L6, 0.25 h, read-out: Biological example 2: intracellular cAMP levels, activity compared to that of isoproterenol)	Emax at 10 µM (L6-myotubes [3]; read-out: Biological example 1: glucose uptake, activity compared to that of isoproterenol)
CO[C@H]1CC[C@H](C[C@@H]2CC[C@H]([C@@H](O)c3cccc(F)c3)N2)CC1.Cl [Example 2, (S)-(3-Fluorophenyl)((2R,5S)-5-(((1r,4S)-4-methoxycyclohexyl) -methyl)pyrrolidin-2-yl)methanol hydrochloride]	− (less than 25%)	− (less than 25%)	+++ (more than 75% of that of isoproterenol)	–	–
CO[C@H]1CC[C@H](C[C@H]2CC[C@H]([C@H](O)c3cccc(F)c3)N2)CC1.Cl [Example 3, (R)-(3-Fluorophenyl)((2R,5R)-5-(((1r,4R)-4-methoxycyclohexyl)-methyl) -pyrrolidin-2-yl)methanol hydrochloride]	− (less than 25%)	− (less than 25%)	+++ (more than 75% of that of isoproterenol)	–	–
CO[C@H]1CC[C@H](C[C@H]2CC[C@H]([C@H](O)c3ccccc3F)N2)CC1.Cl [Example 7, (R)-(2-Fluorophenyl)((2R,5R)-5-(((1r,4S)-4-methoxycyclohexyl)methyl) -pyrrolidin-2-yl)methanol hydrochloride]	–	− (less than 25%)	–	25 to 50%	> 75%
